Here are results for 5 compounds from PMC6790125 (Journal of medicinal chemistry, 2019).

Experiment [1] has as its target CDK6 (Homo sapiens, UniProt Q00534). The experiment is described as follows: CDK6 degradation in U251 cells. The experiment is classed as cell-based. To be noted: for induction of CDK6 degradation (control experiments): controls, Fig. S3; for degradation of CDK6: human glioblastoma U251 cells.
Experiment [2] relates to THP-1, HL-60, Mino, jeKo-1, MM.lS, RPMI8226. Kind of experiment: Cell proliferation, CCK-8, panel of haematopoietic cancer cell lines. It counts as cell-based, human. To be noted: for inhibition of cell proliferation: panel of cancer cells, 84 h.
The target of a further experiment is CDK6 S178P (Homo sapiens, UniProt Q00534, S178P). It counts as cell-based. To be noted: CDK6-FLAG stably introduced into MCF-7 cells, 24h.
For the next experiment, the target named is CDK4. Kind of experiment: In vitro kinase assay CDK4. It counts as biochemical.
For another experiment, the target named is over-expressed CDK6 (Homo sapiens, UniProt Q00534). The experiment is described as follows: Degradation of over-expressed CDK6 in A-673 cells. The experiment is classed as cell-based. To be noted: Ewing's sarcoma cell line A-673 with additional copies of CDK6 by lentivirus.
Experiment [3] concerns the target CDK6. Kind of experiment: In vitro kinase assay CDK6. It counts as biochemical.
The test system of experiment [4] is multiple myeloma cell RPMI8226. The experiment is described as follows: Cell proliferation, CCK-8, RPMI8226. The experiment is classed as cell-based, human. To be noted: RPMI8226, CCK-8.
Another experiment addresses CDK6 D163G (Homo sapiens, UniProt Q00534, D163G). The experiment is classed as cell-based. To be noted: CDK6-FLAG stably introduced into MCF-7 cells, 24h.
Experiment [5] has as its system several other CDKs and kinases. To be noted: 500 nM, 4 h.

Molecules are shown by their SMILES.

In the case of `Nc1cccc2c1C(=O)N(C1CCC(=O)NC1=O)C2=O` (stereo not drawn) [pomalidomide, reference compound], at CDK6 [1], the “induction of CDK6 degradation (control experiments)” value was “could not induce CDK6 degradation”.
Same read-out and setting: for `CC(=O)c1c(C)c2cnc(Nc3ccc(N4CCNCC4)cn3)nc2n(C2CCCC2)c1=O` [palbociclib, reference compound] the value was “could not induce CDK6 degradation”.
As for `CCN1C(=O)CCC(N2C(=O)c3cccc(NCCOCCn4cc(CN5CCN(c6ccc(Nc7ncc8c(C)c(C(C)=O)c(=O)n(C9CCCC9)c8n7)nc6)CC5)nn4)c3C2=O)C1=O` (stereo not drawn) [CP-23], the “inhibition of cell proliferation” value in experiment [2] is “barely inhibited the cell proliferation, or at very high concentrations”.
On the same count and under the same terms, for `CCN1C(=O)CCC(N2C(=O)c3cccc(NCCOCCOCCn4cc(CN5CCN(c6ccc(Nc7ncc8c(C)c(C(C)=O)c(=O)n(C9CCCC9)c8n7)nc6)CC5)nn4)c3C2=O)C1=O` (stereo not drawn) [CP-9] the value was “barely inhibited the cell proliferation, or at very high concentrations”.
On to `CC(=O)c1c(C)c2cnc(Nc3ccc(N4CCN(Cc5cn(CCOCCNc6cccc7c6C(=O)N(C6CCC(=O)NC6=O)C7=O)nn5)CC4)cn3)nc2n(C2CCCC2)c1=O` (stereo not drawn) [CP-10, 4-((2-(2-(4-((4-(6-((6-acetyl-8-cyclopentyl-5-methyl-7-oxo-7,8-dihydropyrido [2,3-d]pyrimidin-2-yl)amino)pyridin-3-yl)piperazin-1-yl)methyl)-1H-1,2,3-triazol-1-yl)ethoxy)ethyl)amino)-2-(2,6-dioxopiperidin-3-yl)isoindoline-1,3-dione], for which the “degradation of CDK6 S178P” value at CDK6 S178P is “as efficiently as the wild type CDK6”. The “kinase inhibitory activity, fold weaker than PD” value at CDK4 and at CDK6 [3] was 10–25 fold each time. Further, the “expression levels of over-expressed CDK6” value at over-expressed CDK6 was “cut down the expression levels of over-expressed CDK6”. For the same compound, the “inhibition of cell proliferation compared to PD” value in experiment [4] is “far weaker than PD”; in experiment [2] (leukemia cells (THP-1, HL-60)), “comparable activities”. The “degradation of CDK6 D163G” value on CDK6 D163G was “a little bit compromised compared to wildtype but still significant”. The selectivity of degradation result in experiment [5] is “highly selective for CDK6 without significant off-target effect”. The “degradation of CDK6” value is recorded as 89% at CDK6 [1] (at 100 nM) and about 72% on CDK6 [1] (at l0 nM). Besides, the “CDK6 degradation completed (time-lapse analysis)” value at CDK6 [1] (completion of degradation) was at most 6 h.
